Measured values: patent publication US20240207427A1, “SELECTIVE DRUG RELEASE FROM INTERNALIZED CONJUGATES OF BIOLOGICALLY ACTIVE COMPOUNDS” (priority 2021, published 2024)
pIC50: −log10 of the molar value. Like-named read-outs stand apart in the source and are kept apart here.

Legend:
Type in all cases: cell-based
[1] = system: breast cancer cells (MDA-MB-231); assay: In vitro potency (CellTiter-Glo, 96 h), MDA-MB-231; conditions: Homo sapiens, MDA-MB-231, 96 h
How it was run: (§1)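 Growth inhibition after 96 h at 37 °C with test article, measured by luminescence; cells in RPMI 1640, 20% FBS.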

[2] = system: pancreatic cancer cells (BxPC3); assay: In vitro potency (CellTiter-Glo, 96 h), BxPC3; conditions: Homo sapiens, BXPC-3, 96 h
How it was run: (§2)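 Log-phase cells were seeded for 24 h in RPMI 1640 with 20% FBS, then exposed to serially diluted antibody-drug conjugates or free camptothecin drug for 4 days at 37 °C. Growth inhibition was read by luminescence, and IC50 values were reported in ng/mL and nmol/L.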

[3] = system: B-lymphocyte cancer cells (SU-DHL4); assay: In vitro potency (CellTiter-Glo, 96 h), SU-DHL-4; conditions: Homo sapiens, SU-DHL-4, 96 h
How it was run: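 Four-day continuous exposure at 37 °C to serially diluted ADC or free camptothecin payload, in RPMI 1640 with 20% FBS after 24 h pre-plating. Luminescent signal gave IC50 (ng/mL; nmol/L).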

[4] = system: non-small-cell lung cancer cells (Calu1); assay: In vitro potency (CellTiter-Glo, 96 h), Calu1; conditions: Homo sapiens, Calu-1, 96 h
How it was run: as §1

[5] = system: anaplastic large cell lymphoma cells (DELBVR); assay: In vitro potency (CellTiter-Glo, 96 h), DELBVR
How it was run: as §1

[6] = system: Ls174T cells; assay: In vitro potency (CellTiter-Glo, 96 h), Ls174T; conditions: Homo sapiens, LS174T
How it was run: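 Medium: RPMI 1640 + 20% FBS. Pre-seeding: 24 h. Treatment: ADC or CPT free drug serial dilutions, 96 h, 37 °C. Read-out: luminescence; IC50 in ng/mL and nmol/L.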

[7] = system: Hodgkin's lymphoma cells (L540cy); assay: In vitro potency (CellTiter-Glo, 96 h), L540cy
How it was run: as §1

[8] = system: acute myeloid leukemia cells (MOLM-13); assay: In vitro potency (CellTiter-Glo, 96 h), MOLM-13; conditions: Homo sapiens, MOLM-13, 96 h
How it was run: as §2

[9] = system: anaplastic large cell lymphoma cells (Karpas299); assay: In vitro potency (CellTiter-Glo, 96 h), Karpas299; conditions: Homo sapiens, KARPAS-299, 96 h
How it was run: as §1

[10] = system: renal carcinoma cells (786-O); assay: In vitro potency (CellTiter-Glo, 96 h), 786-O; conditions: Homo sapiens, 786-0, 96 h
How it was run: as §1

[11] = system: melanoma cells (A2058); assay: In vitro potency (CellTiter-Glo, 96 h), A2058; conditions: Homo sapiens, A2058, 96 h
How it was run: as §1

[12] = system: anaplastic large cell lymphoma cells (DEL); assay: In vitro potency (CellTiter-Glo, 96 h), DEL
How it was run: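 Authenticated lines (STR), used within 2 months of resuscitation, were seeded 24 h before treatment. Exposure to ADC dilutions lasted 96 h at 37 °C in RPMI 1640 with 20% FBS; viability was quantified luminescently.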

[13] = read-out: IC50 (nmol/L) MDAMB231, CPT free drugs, Table 24, CellTiter-Glo after 96 h exposure
[14] = read-out: IC50 (nmol/L) BxPC3, CPT free drugs, Table 24, CellTiter-Glo after 96 h exposure
[15] = read-out: IC50 (nmol/L) SU-DHL-4, CPT free drugs, Table 24, CellTiter-Glo after 96 h exposure
[16] = read-out: IC50 (nmol/L) DELBVR, CPT free drugs, Table 24, CellTiter-Glo after 96 h exposure
[17] = 96 h, read-out: IC50 (nmol/L) Ls174T, CPT free drugs, Table 24, CellTiter-Glo after 96 h exposure
[18] = read-out: IC50 (nmol/L) L540cy, CPT free drugs, Table 24, CellTiter-Glo after 96 h exposure
[19] = read-out: IC50 (nmol/L) MOLM-13, CPT free drugs, Table 24, CellTiter-Glo after 96 h exposure
[20] = read-out: IC50 (nmol/L) Karpas299, CPT free drugs, Table 24, CellTiter-Glo after 96 h exposure
[21] = read-out: IC50 (nmol/L) 786-O, CPT free drugs, Table 24, CellTiter-Glo after 96 h exposure
[22] = read-out: IC50 (nmol/L) DEL, CPT free drugs, Table 24, CellTiter-Glo after 96 h exposure
[23] = CPT free drugs, Table 24, CellTiter-Glo after 96 h exposure, read-out: IC50 (nmol/L) MDAMB231
[24] = CPT free drugs, Table 24, CellTiter-Glo after 96 h exposure, read-out: IC50 (nmol/L) BxPC3
[25] = CPT free drugs, Table 24, CellTiter-Glo after 96 h exposure, read-out: IC50 (nmol/L) SU-DHL-4
[26] = CPT free drugs, Table 24, CellTiter-Glo after 96 h exposure, read-out: IC50 (nmol/L) Calu1
[27] = CPT free drugs, Table 24, CellTiter-Glo after 96 h exposure, read-out: IC50 (nmol/L) DELBVR
[28] = CPT free drugs, Table 24, CellTiter-Glo after 96 h exposure, read-out: IC50 (nmol/L) Ls174T
[29] = CPT free drugs, Table 24, CellTiter-Glo after 96 h exposure, read-out: IC50 (nmol/L) L540cy
[30] = CPT free drugs, Table 24, CellTiter-Glo after 96 h exposure, read-out: IC50 (nmol/L) MOLM-13
[31] = CPT free drugs, Table 24, CellTiter-Glo after 96 h exposure, read-out: IC50 (nmol/L) Karpas299
[32] = CPT free drugs, Table 24, CellTiter-Glo after 96 h exposure, read-out: IC50 (nmol/L) 786-O
[33] = CPT free drugs, Table 24, CellTiter-Glo after 96 h exposure, read-out: IC50 (nmol/L) A2058
[34] = CPT free drugs, Table 24, CellTiter-Glo after 96 h exposure, read-out: IC50 (nmol/L) DEL

CC[C@@]1(O)C(=O)OCc2c1cc1n(c2=O)Cc2c-1nc1cc(F)c(C)c(F)c1c2CN [Compound 2j]
pIC50 [1, 13]: 8.70
pIC50 [2, 14]: 8.05
pIC50 [3, 15]: 8.70
pIC50 ([4]; read-out: IC50 (nmol/L) Calu1): 7.64
pIC50 [5, 16]: 9.00
pIC50 [6, 17]: 8.52
pIC50 [7, 18]: 9.00
pIC50 [8, 19]: 8.05
pIC50 [9, 20]: 8.70
pIC50 [10, 21]: 8.52
pIC50 ([11]; read-out: IC50 (nmol/L) A2058): 8.70
pIC50 [12, 22]: 9.00

CC[C@@]1(O)C(=O)OCc2c1cc1n(c2=O)Cc2c-1nc1cc(Br)c(C)c(F)c1c2CN [Compound 2k]
pIC50 [1, 23]: 8.10
pIC50 [2, 24]: 7.38
pIC50 [3, 25]: 8.40
pIC50 [4, 26]: 7.09
pIC50 [5, 27]: 8.48
pIC50 [6, 28]: 7.92
pIC50 [7, 29]: 8.40
pIC50 [8, 30]: 7.24
pIC50 [9, 31]: 7.85
pIC50 [10, 32]: 8.30
pIC50 [11, 33]: 8.40
pIC50 [12, 34]: 8.46

CC[C@@]1(O)C(=O)OCc2c1cc1n(c2=O)Cc2c-1nc1cc(F)c(F)cc1c2CN [Compound 2l]
pIC50 [1, 23]: 8.10
pIC50 [2, 24]: 7.46
pIC50 [3, 25]: 8.40
pIC50 [4, 26]: 7.38
pIC50 [5, 27]: 8.68
pIC50 [6, 28]: 8.09
pIC50 [7, 29]: 8.40
pIC50 [8, 30]: 7.80
pIC50 [9, 31]: 8.10
pIC50 [10, 32]: 7.82
pIC50 [11, 33]: 8.40
pIC50 [12, 34]: 8.48

CC[C@@]1(O)C(=O)OCc2c1cc1n(c2=O)Cc2c-1nc1cc3c(cc1c2CN)OCC3 [Compound 2m]
pIC50 [1, 13]: 7.46
pIC50 [2, 14]: 6.89
pIC50 [3, 15]: 7.65
pIC50 ([4]; read-out: IC50 (nmol/L) Calu1): 6.60
pIC50 [5, 16]: 7.85
pIC50 [6, 17]: 7.77
pIC50 [7, 18]: 7.75
pIC50 [8, 19]: 7.22
pIC50 [9, 20]: 7.24
pIC50 [10, 21]: 7.26
pIC50 ([11]; read-out: IC50 (nmol/L) A2058): 7.79
pIC50 [12, 22]: 7.96

CC[C@@]1(O)C(=O)OCc2c1cc1n(c2=O)Cc2c-1nc1cc3c(cc1c2CN)CCO3 [Compound 2n]
pIC50 [1, 13]: 9.00
pIC50 ([1]; read-out: MDAMB231 IC50, Table 28, CPT free drugs, breast cancer cells MDA-MB-231, 96 h, CellTiter-Glo): 8.10
pIC50 ([2]; read-out: BxPC3 IC50, Table 28, CPT free drugs, pancreatic cancer cells BxPC3, 96 h, CellTiter-Glo): 8.52
pIC50 [2, 14]: 8.52
pIC50 [3, 15]: 9.00
pIC50 ([3]; read-out: SU-DHL-4 IC50, Table 28, CPT free drugs, B-lymphocyte cancer cells SU-DHL4, 96 h, CellTiter-Glo): 9.00
pIC50 ([4]; read-out: Calu1 IC50): 7.74
pIC50 ([4]; read-out: IC50 (nmol/L) Calu1): 7.68
pIC50 ([5]; read-out: DELBVR IC50, Table 28, CPT free drugs, anaplastic large cell lymphoma cells DELBVR, CellTiter-Glo): 9.00
pIC50 [6, 17]: 9.10
pIC50 ([6]; 96 h, read-out: Ls174T IC50, Table 28, CPT free drugs, Ls174T cells, 96 h, CellTiter-Glo): 8.40
pIC50 [7, 18]: 9.00
pIC50 ([7]; read-out: L540cy IC50, Table 28, CPT free drugs, Hodgkin's lymphoma cells L540cy, CellTiter-Glo): 8.70
pIC50 [8, 19]: 8.22
pIC50 ([8]; read-out: MOLM-13 IC50, Table 28, CPT free drugs, acute myeloid leukemia cells MOLM-13, 96 h, CellTiter-Glo): 7.54
pIC50 [9, 20]: 9.00
pIC50 ([9]; read-out: Karpas299 IC50, Table 28, CPT free drugs, anaplastic large cell lymphoma cells Karpas299, 96 h, CellTiter-Glo): 8.30
pIC50 ([10]; read-out: 786-O IC50, Table 28, CPT free drugs, renal carcinoma cells 786-O, 96 h, CellTiter-Glo): 8.30
pIC50 [10, 21]: 9.00
pIC50 ([11]; read-out: A2058 IC50): 8.52
pIC50 ([12]; read-out: DEL IC50, Table 28, CPT free drugs, anaplastic large cell lymphoma cells DEL, CellTiter-Glo): 9.00

CC[C@@]1(O)C(=O)OCc2c1cc1n(c2=O)Cc2c-1nc1cc(C)c(C)c(F)c1c2CN [Compound 2o]
pIC50 [1, 23]: 7.43
pIC50 [2, 24]: < 6.00
pIC50 [3, 25]: 7.74
pIC50 [4, 26]: 6.39
pIC50 [5, 27]: 7.80
pIC50 [6, 28]: 7.71
pIC50 [7, 29]: 7.70
pIC50 [8, 30]: 6.46
pIC50 [9, 31]: 7.43
pIC50 [10, 32]: 7.18
pIC50 [11, 33]: 7.74
pIC50 [12, 34]: 8.00

CC[C@@]1(O)C(=O)OCc2c1cc1n(c2=O)Cc2c-1nc1cccc(F)c1c2CN [Compound 2p]
pIC50 [1, 23]: 7.72
pIC50 [2, 24]: 7.21
pIC50 [3, 25]: 7.85
pIC50 [4, 26]: 6.80
pIC50 [5, 27]: 8.10
pIC50 [6, 28]: 7.82
pIC50 [7, 29]: 8.15
pIC50 [8, 30]: 7.62
pIC50 [9, 31]: 7.57
pIC50 [10, 32]: 7.85
pIC50 [11, 33]: 7.96
pIC50 [12, 34]: 8.40
